# Assay results published in US20050227982A1, “Antileishmanial dinitroaniline sulfanomides with activity against parasite tubulin” (priority 2002, published 2005).
# Where “and” joins values, the source holds several entries; their conditions need not be identical. Equal entries are not always repeated. Where two headings read alike, the source gives them in different places.
# How the values were obtained:
# PC3 cells = test: Toxicity to PC3 cells (three-day CellTiter assay); assay type: cell-based; conditions: read-out: IC50, PC3 prostate
# Description: (§1) The toxicity of compounds to J774 murine macrophages and PC3 […] cells was measured in a three-day assay using the CellTiter reagent. […] Macrophages were allowed to adhere for 24 hours, then the medium was removed and replaced with serial dilutions of the test compounds in the DMEM medium mentioned above without phenol red. After 72 hr incubation with the test compounds at 37° C. in a humidified 5% CO2 incubator, cell viability was determined using the CellTiter reagent by adding 20 μL of assay solution to each well. After a 6-7 h incubation at 37° C. to allow for color development, the absorbance of each well at 490 nm was measured in a SpectraMax Pro microplate reader (Molecular Devices). The toxicity of compounds to PC3 cells was assessed in the same manner as for the macrophages, except that the medium used was RPMI 1640 supplemented with 10% heat inactivated fetal calf serum, 2.0 mM L-glutamine, 50 units/mL penicillin, and 50 ∝g/mL streptomycin. IC50 values for the J774 and PC3 assays were determined with the software program SoftMax Pro as described earlier.
# [1] = tested on: L. donovani axenic amastigotes; test: Growth inhibition of L. donovani axenic amastigotes (three-day tetrazolium dye assay); assay type: cell-based, Leishmania donovani
# Description: (§2) 2000, 110, 223-236, incorporated herein by reference.^14
# (§3) Determination of the drug susceptibility of parasites and mammalian cells. The susceptibility of Leishmania donovani amastigote-like parasites (WHO designation: MHOM/SD/62/1S-CL2D) to growth inhibition by compounds of interest was measured in a three-day assay using the tetrazolium dye-based CellTiter reagent (Promega) (Werbovetz, K., Brendle, J., and Sackett, D. (1999) Mol. Biochem. Parasitol. 98, 53-65., and Havens, C., Bryant, N., Asher, L., Lamoreaux, L., Perfetto, S., Brendle, J., and Werbovetz, K. (2000) Mol. Biochem. Parasitol. 110, 223-236). The amastigote medium used in this assay is based on the medium mentioned by Joshi et al. (Joshi, M., Dwyer, D. M., and Nakhasi, H. L. (1993) Mol. Biochem. Parasitol. 58, 345-354). Prior to addition of fetal bovine serum to a final concentration of 20%, this amastigote medium contains 15 mM KCl, 115 mM KH2PO4, 10 mM K2HPO4, 0.5 mM MgSO4, 24 mM NaHCO3, a 1-concentration of RPMI-1640 vitamins and amino acids, 2.0 mM L-glutamine, 22 mM D-glucose, 100 units/mL penicillin, 100 ∝g/ml streptomycin, 0.1 mM adenosine, 1 ∝g/mL folate, and 25 mM MES (pH 5.5). Compounds were tested for their activity against bloodstream-form Trypanosoma brucei brucei (MITat 1.2, variant 221) axenically-cultured in HMI-9 medium , H., and Hirumi, K. (1989) J. Parasitol. 75, 985-989.) following the procedure of Ellis et al. (Ellis, J., Fish, W., Sileghem, M., and McOdimba, F. (1993) Vet. Parasitol. 50, 143-149.) with some modifications. Briefly, 100 μL of late log phase parasites were incubated in 96-well plates (Costar) at an initial concentration of 10^5 cells/ml with or without test compounds at 37° C. in a humidified 5% CO2 atmosphere for 72 hours. Twenty-five μL of a 5 mg/mL solution of MTT (prepared in phosphate buffered saline and filter sterilized) was then added to each well and plates were re-incubated at 37° C. as before for 2 h. One hundred ∝L of 20% SDS lysis buffer (prepared in 50% aqueous DMF) was added to each well and plates were incubated as before for an additional 3-4 h. Optical densities were then measured at 570 nm using SpectraMax Plus microplate reader. […] Assessment of the in vitro sensitivity of T. b. brucei Lab 110 EATRO and P. falciparum strains to compounds was performed by methods described in Donkor et al. (Donkor, I., Assefa, H., Rattendi, D., Lane, S., Vargas, M., Goldberg, B., and Bacchi, C. (2001) Eur. J. Med. Chem. 36, 531-538.) and Guan et al. (Guan, J., Kyle, D., Gerena, L., Zhang, Q., Milhous, W., and Lin, A. (2002) J. Med. Chem. 45, 2741-2748).
# J774 murine macrophages = test: Toxicity to J774 macrophages (three-day CellTiter assay); assay type: cell-based
# Description: as §1
# [2] = tested on: L. donovani promastigotes; test: Flow cytometry of DNA content in L. donovani promastigotes; assay type: cell-based, Leishmania donovani; conditions: 10 μM compound; for effect on cell cycle / DNA content by flow cytometry: 48 hour treatment of promastigotes
# Description: Flow cytometry and fluorescence cell sorting. Parasites or J774 macrophages were incubated in T25 flasks (3-5 mL final volume) in the appropriate media described earlier for 24-48 h. Cultures contained 1% DMSO (v/v) in the presence or absence of test compounds. Cells were counted using a hemacytometer, then were centrifuged (1000×·g for parasites, 200×·g for macrophages) at 4° C. for 10 min (parasites) or 5 min (macrophages). Cells were resuspended in 150 μL of PBS (0.01 M phosphate, 0.137 M NaCl, and 2.7 mM KCl), then 350 μL of ice-cold methanol was added and the samples were fixed at −20° C. for 2-3 h. Cells were centrifuged as before and resuspended in PBS containing 0.1% TX-100, 5 μg/mL RNase A, and 10 μg/mL propidium iodide for 20-30 min. Centrifugation was repeated, then cells were resuspended in PBS to a final concentration of 5×10^5-10^6/mL and stored at 4° C. until analysis. Fluorescence cell sorting was conducted on a Beckman Coulter Elite flow cytometer.
# [3] = tested on: Trypanosoma brucei brucei (MITat 1.2, variant 221); test: microbe, parasite or virus in culture; assay type: cell-based; conditions: read-out: IC50, T. b. brucei variant 221
# Description: as §3
# P. falciparum W2 strain = test: microbe, parasite or virus in culture; assay type: cell-based, Plasmodium falciparum
# Description: as §3
# [4] = tested on: L. donovani promastigotes; test: Growth inhibition of L. donovani promastigotes; assay type: cell-based, Leishmania donovani; conditions: for IC50: read-out: IC50 vs. L. donovani promastigotes
# leishmanial tubulin [5] = assay type: biochemical; conditions: mean ± SD of at least one duplicate measurement, SD of controls 27.6%
# Description: as §2
# Briefly, the tubulin assembly assays are performed as follows. […] The change in turbidity was measured at 351 nm using the SpectraMax Plus microplate reader immediately after GTP addition at 30° C. (for leishmanial tubulin) or 37° C. (for brain tubulin).
# [6] = tested on: T. b. brucei Lab 110 EATRO; test: In vitro sensitivity of T. b. brucei Lab 110 EATRO (Coulter counter, two-day); assay type: cell-based, Trypanosoma brucei brucei; conditions: read-out: IC50, T. b. brucei Lab 110 EATRO
# Description: as §3
# P. falciparum D6 strain = test: In vitro sensitivity of P. falciparum D6 strain (tritiated hypoxanthine uptake); assay type: cell-based, Plasmodium falciparum
# Description: as §3
# leishmanial tubulin [7] = conditions: reference 8; cited from earlier work
# [8] = literature reference 4; cited from earlier work
# [9] = read-out: IC50, J774 macrophages
# [10] = Plasmodium falciparum, W2, read-out: IC50, P. falciparum W2 strain
# [11] = Plasmodium falciparum, D6, read-out: IC50, P. falciparum D6 strain
# [12] = Leishmania donovani, 72 h, Table 4, three-day tetrazolium dye assay, mean ± SD, read-out: IC50, L. donovani axenic amastigotes
# [13] = Leishmania donovani, Table 1, mean ± standard deviation of at least two independent measurements, read-out: IC50 vs. L. donovani amastigotes
# [14] = Mus musculus, J774, Table 4, mean ± SD of at least two independent experiments, read-out: IC50, J774 macrophages
# [15] = Trypanosoma brucei, 72 h, Table 4, three-day tetrazolium dye assay
compound,measurement,setting,value
"CCCN(CCC)c1c([N+](=O)[O-])cc(S(=O)(=O)Nc2ccccc2)cc1[N+](=O)[O-] [Compound 20, N1-Phenyl-3,5-dinitro-N4,N4-di-n-propylsulfonilamide]",IC50,"PC3 cells; Homo sapiens, PC-3, 72 h",41.3 ± 8.5 µM
same,fold more active than 3 against L. donovani axenic amastigotes,[1],13.4 fold
same,IC50,"[1]; Leishmania donovani, 72 h, read-out: IC50, L. donovani axenic amastigotes",5.03 ± 1.08 µM
same,IC50,"[1]; Leishmania donovani, read-out: IC50 vs. L. donovani amastigotes",5.41 ± 0.89 µM
same,IC50,"J774 murine macrophages; Mus musculus, J774, read-out: IC50, J774 macrophages",28.3 ± 3.8 µM
same,IC50,J774 murine macrophages; [9],30.8 ± 1.9 µM
same,effect on cell cycle / DNA content by flow cytometry,[2],"appearance of parasites containing approximately 4×, 8×, and 16× more DNA"
same,parasite cell density over 48 hours,[2]; control cultures doubled approximately three times,remained at the same cell density
same,IC50,"[3]; Trypanosoma brucei, 72 h",0.412 ± 0.044 µM
same,IC50,[3]; Trypanosoma brucei,0.4 µM
same,IC50,P. falciparum W2 strain; [10],13 µM
same,IC50,[4]; Leishmania donovani,14.7 ± 1 µM
same,fold more active than 3 against promastigotes,[4]; relative to oryzalin 3,3.0 fold
same,% Inhibition of Leishmanial Tubulin Assembly at 20 μM Compound,leishmanial tubulin [5],108 ± 7%
same,melting point,,120 °C
same,IC50,"[6]; Trypanosoma brucei, 48 h",0.58 µM
same,IC50,P. falciparum D6 strain; [11],11 µM
CCCCCCN(CCCCCC)c1c([N+](=O)[O-])cc(S(N)(=O)=O)cc1[N+](=O)[O-] [Compound 17],IC50,"PC3 cells; Homo sapiens, PC-3, 72 h",11.2 ± 1.3 µM
same,IC50,[1]; [12],11.7 ± 0.7 µM
same,IC50,[1]; [13],11.7 ± 0.7 µM
same,IC50,J774 murine macrophages; [14],1.91 ± 0.36 µM
same,IC50,[3]; [15],9.48 ± 1.73 µM
same,IC50,P. falciparum W2 strain; [10],12 µM
same,IC50,[4]; Leishmania donovani,12.2 µM
same,% Inhibition of Leishmanial Tubulin Assembly at 20 μM Compound,leishmanial tubulin [5],48 ± 19%
same,IC50,"[6]; Trypanosoma brucei, 48 h",5.6 µM
same,IC50,P. falciparum D6 strain; [11],10 µM
"CCCNS(=O)(=O)c1cc([N+](=O)[O-])c(N(CCC)CCC)c([N+](=O)[O-])c1 [Compound 21, N1-Propyl-3,5-dinitro-N4,N4-di-n-propylsulfonilamide]",IC50,"PC3 cells; three-day tetrazolium dye assay, mean ± SD",40.5 ± 8.6 µM
same,IC50,"[1]; read-out: IC50, L. donovani axenic amastigotes",54.3 µM and 56.9 µM
same,IC50,[1]; read-out: IC50 vs. L. donovani amastigotes,56.9 ± 3.4 µM
same,IC50,J774 murine macrophages; [9],21.8 ± 2.1 µM
same,IC50,[3],9.2 µM and 8.06 µM
same,IC50,"P. falciparum W2 strain; tritiated hypoxanthine uptake, read-out: IC50, P. falciparum W2 strain",> 25 µM
same,IC50,[4]; mean ± standard deviation of at least two independent measurements,56 ± 2.3 µM
same,% Inhibition of Leishmanial Tubulin Assembly at 20 μM Compound,leishmanial tubulin [5],97 ± 1%
same,IC50,[6]; Coulter counter after two-day incubation,3 µM
same,IC50,"P. falciparum D6 strain; tritiated hypoxanthine uptake, read-out: IC50, P. falciparum D6 strain",13 µM
"O=[N+]([O-])c1cc(C(F)(F)F)cc([N+](=O)[O-])c1Cl [Chloralin, chloralin]","inhibition of leishmanial tubulin polymerization (in words, earlier publication)",leishmanial tubulin [7],inhibitor of leishmanial tubulin polymerization
CCCCCN(CCCCC)c1c([N+](=O)[O-])cc(S(N)(=O)=O)cc1[N+](=O)[O-] [Compound 16],IC50,[1]; [13],9 ± 0.7 µM
same,IC50,[4]; Leishmania donovani,8.02 ± 0.42 µM
same,% Inhibition of Leishmanial Tubulin Assembly at 20 μM Compound,leishmanial tubulin [5],95 ± 5%
"CCCN(CCC)c1c([N+](=O)[O-])cc(C(F)(F)F)cc1[N+](=O)[O-] [Trifluralin, trifluralin]",aqueous solubility (in words),[8],low solubility
"CCCCN(CCCC)c1c([N+](=O)[O-])cc(S(N)(=O)=O)cc1[N+](=O)[O-] [Compound 15, 4(dibutylamino)-3,5-dinitrobenzenesulfonamide]",IC50,"PC3 cells; Homo sapiens, PC-3, 72 h",17.2 ± 2.8 µM
same,IC50,[1]; [12],20.1 ± 0.2 µM
same,IC50,"[1]; Leishmania donovani, 72 h, unit inferred, three-day tetrazolium dye assay, read-out: IC50, L. donovani axenic amastigotes",20.1 ± 0.2 µM
same,IC50,[1]; [13],20.1 ± 0.2 µM
same,IC50,J774 murine macrophages; [14],8.43 ± 0.69 µM
same,IC50,"J774 murine macrophages; Mus musculus, J774, table after b111, unit inferred, read-out: IC50, J774 macrophages",8.43 ± 0.69 µM
same,effect on cell cycle / DNA content by flow cytometry,[2],accumulate in the G2M phase of the cell cycle
same,IC50,[3]; [15],2.57 ± 0.7 µM
same,IC50,"[3]; Trypanosoma brucei, unit inferred",2.57 ± 0.7 µM
same,IC50,P. falciparum W2 strain; [10],4.3 µM
same,IC50,[4]; Leishmania donovani,17.8 ± 2.6 µM
same,% Inhibition of Leishmanial Tubulin Assembly at 20 μM Compound,leishmanial tubulin [5],89 ± 3%
same,IC50,"[6]; Trypanosoma brucei, 48 h",1.8 µM
same,IC50,P. falciparum D6 strain; [11],5.1 µM
